Test results as given in patent US20250352612A1, “PHARMACEUTICAL AGENT TO PREVENT THE ADVERSE EFFECTS OF ROTAVIRUS NSP4 PROTEIN” (priority 2022, published 2025).

Experiments:
Assay type in all cases: cell-based
intestinal cell line = experiment: Intracellular calcium amount after NSP4 and PlnA administration in intestinal cell line; conditions: co-administration of NSP4 and PlnA-containing agent
From the text: In an exemplary embodiment of the pharmaceutical agent developed with the present invention, a pharmaceutical agent containing the Lactobacillus plantarum bacteriocin Plantaricin A (PlnA) is used to reduce the intracellular calcium content of the rotavirus NSP4 protein in the intestinal cell line. Thus, the amount of intracellular calcium increased by the NSP4 protein is reduced and, therefore, cell death and ER disruption caused by rotavirus through apoptosis is prevented by this strategy.

IL-10 [1] = experiment: IL-10 mRNA levels (gene expression) after NSP4 and PlnA administration; conditions: NSP4 and PlnA containing agent together, Graph 5
IL-10 [2] = experiment: IL-10 protein levels after NSP4 and PlnA administration; conditions: NSP4 and PlnA-containing agent; for increase of IL-10 protein levels compared to the control group without any application: Graph 3

In the case of “Plantaricin A [PlnA-containing pharmaceutical agent]”, the “decrease of amount of intracellular calcium compared to the NSP4-treated first group” value (intestinal cell line; 6th hour, Graph 1) is reported as 3.75 fold, the “decrease of amount of intracellular calcium compared to the control group” value (intestinal cell line; 6th hour, Graph 1) is reported as 1.64 fold and the “amount of intracellular calcium compared to the control group” value (intestinal cell line; 12 hours, Graph 2) is reported as “the same amount of calcium was observed in the control group”. The “decrease of amount of intracellular calcium compared to the first group administered NSP4” value (intestinal cell line; 12 hours, Graph 2) was 2.67 times, the “increase of IL-10 mRNA level compared to the control group” value (IL-10 [1]; 12th hour) was 0.68 fold and the “NSP4-induced suppression of IL-10 gene expression” value (IL-10 [1]) was “this suppression was reduced”. The “increase of IL-10 protein levels compared to the control group without any application” value (IL-10 [2]; 3rd hour) was 2 fold, the “increase of IL-10 protein levels compared to the control group without any application” value (IL-10 [2]; 6th hour) was 1.43 fold and the “IL-10 protein levels compared to the control group” value (IL-10 [2]; 12 hours, Graph 4) was “no significant difference”. The “increase of IL-10 protein levels compared to the control group” value (IL-10 [2]; 24 hours, Graph 4) was 1.13 fold.
